# Literature values as cited in patent US9925200B2, “Stable formulations of testosterone undecanoate” (Merck Sharp & Dohme B.V., priority 2014, dated 2018).
# Key:
# [1] = not given; remark: listed apart in the source
smiles,measurement,setting,value
CCCCCCCCCCC(=O)O[C@H]1CC[C@H]2[C@@H]3CCC4=CC(=O)CC[C@]4(C)[C@H]3CC[C@]12C [Testosterone undecanoate],Log P,,9.1
same,water solubility,[1],very low
